The numbers were not newly measured in patent US20240350583A1, “COMPOSITION FOR PREVENTING OR TREATING FIBROTIC DISEASES, COMPRISING HAPLN1” (Chung Ang University Industry Academic Cooperation …, priority 2021, published 2024), which cites them from elsewhere.

In the data set the test system is bleomycin-induced pulmonary fibrosis. As to conditions: group treated with prednisolone (Oku et al.); cited from earlier work.

Regarding `C[C@]12C=CC(=O)C=C1CC[C@@H]1[C@@H]2[C@@H](O)C[C@@]2(C)[C@H]1CC[C@]2(O)C(=O)CO` [prednisolone], the “level of TGFβ1, a measure of anti-fibrotic efficacy” value is listed as “no decrease” and the “levels of inflammation-related biomarkers” value is reported as “decreased”.
